The subject of one data set is human coronavirus OC43. In kind it is cell-based. Conditions: for effect on virus titer (in words): 50 μM or 100 μM, Vero E6, MOI=1, 24 hours at 33° C.; for reduced virus titer: 100 μM, Vero E6, MOI=1, 24 hr, plaque formation.
Data set [1] has as its system SARS-CoV-2 stem loop constructs (SL1, SL4, SL5a, SL5b, SL6). In kind it is binding. Particulars: RiboGreen displacement, Tris buffer pH 7.4.
Another data set deals with Vero E6 cells. The data set is described as follows: Cytotoxicity MTT assay in Vero E6 cells. In kind it is cell-based, African green monkey. Particulars: <10 μM, 96 hour, Vero E6. The protocol:
(§1) Cytotoxicity Assays: Various concentrations of DMAs were added to Vero E6 cells in culture. The cells were incubated at 33° C. for 96 hrs. Cell viability was determined by MTT assay and measured at 570 nm according to the manufacturer's instructions (EMD Millipore). All experiments were performed in triplicate. The concentration of DMAs required to reduce cell viability to 50% of the control cells was expressed as CC50.
For orientation: Tetrazolium dyes change colour on reduction, which living cells bring about.

Data set [2] is described as follows: Cytotoxicity MTT assay in Vero E6 cells. The class given is cell-based, African green monkey. Conditions: African green monkey, Vero E6 cells; Vero E6, 96 hrs, 33° C., MTT. The protocol: as §1
In data set [3] the test system is SARS-CoV-2 5′-end and 3′UTR. In kind it is cell-based.
Data set [4] has as its system SARS-CoV-2. The class given is cell-based. Conditions: for viral titer compared to DMSO (TCID50 assay): 10 μM and 50 μM, MOI 0.1, 3 days; for antiviral activity compared to parent scaffold DMA-01: Vero E6 infected with wild-type SARS-CoV-2.
The next data set deals with VeroE6 cells. Particulars: uninfected VeroE6, 3 days of treatment, 10 μM and 50 μM.
For a further data set, the system named is SARS-CoV-2 SL1 RNA. The data set is described as follows: Indicator displacement assay (IDA), SL1. The class given is binding. Particulars: RiboGreen displacement, Tris buffer pH 7.4.
A further data set has as its system SARS-CoV-2 SL6 RNA. Kind of data set: Indicator displacement assay (IDA), SL6. Conditions: RiboGreen displacement, Tris buffer pH 7.4. In kind it is binding.
The test system of the next data set is SARS-CoV-2 SL4 RNA. Kind of data set: Indicator displacement assay (IDA), SL4. In kind it is binding. Particulars: RiboGreen displacement, Tris buffer pH 7.4.
The test system of data set [5] is SARS-CoV-2. The data set is described as follows: microbe, parasite or virus in culture. In kind it is cell-based. Conditions: Severe acute respiratory syndrome coronavirus 2, Vero C1008; Vero E6, MOI 0.1, within 24 hours of infection; read-out: approximate IC50, cell-free viral RNA levels.

Molecules are shown by their SMILES. Some results are limits rather than exact numbers.

Usually CC50 stands for the concentration that lowers cell viability or growth by half. A low value points to harm at low concentration. In general, IC50 refers to the midpoint of a concentration-inhibition curve.

As to `CN(C)c1nc(N)c(C(=O)N=C(N)N)nc1Cl` [DMA-1, dimethylamiloride, reference compound], in the data set with human coronavirus OC43, the “effect on virus titer (in words)” value is “no activity”. In addition, in data set [1], the “binding affinity against any of the constructs (IDA)” value is given as “did not show binding affinity”.
For the molecule `CN(C)c1nc(N)c(C(=O)NC(=N)N)nc1-c1ccccc1` [DMA-132], the cell viability result with Vero E6 cells is on record as “do not significantly reduce cell viability”. Further, the CC50 at 96 h in data set [2] is > 100 µM. Also, in the data set with human coronavirus OC43, the “effect on virus titer (in words)” value is on record as “reduce virus titer in a dose-dependent manner” and the reduced virus titer is ~1,000 fold. Further, the “reduction of FLuc activity” value in [3] is on record as “approximately 50%”. In the data set with SARS-CoV-2 [4], the “viral titer compared to DMSO (TCID50 assay)” value is “dose-dependent reduction in viral titer” and the “antiviral activity compared to parent scaffold DMA-01” value is given as “improved antiviral activity”. Besides, in data set [1], the “binding affinity against any of the constructs (IDA)” value was “did not show binding affinity”. In addition, the “cellular viability as measured by ATP content” value in the data set on VeroE6 cells is on record as “without measurable effect on cellular viability”.
On to `CN(C)c1nc(N)c(C(=O)NC(=N)N)nc1C#Cc1ccccc1` [DMA-135], for which the cell viability entry in the data set on Vero E6 cells is “do not significantly reduce cell viability”. Further, the cytotoxic concentration (CC50) at 96 h in data set [2] was > 100 µM. Moreover, in the data set on human coronavirus OC43, the “effect on virus titer (in words)” value is reported as “reduce virus titer in a dose-dependent manner” and the reduced virus titer was ~1,000 fold. Besides, the “reduction of FLuc activity” value in data set [3] is listed as “approximately 50%”. Further, the “affinity for SL1 (IDA)” value in the data set on SARS-CoV-2 SL1 RNA is “weak affinity”. Further, in the data set on SARS-CoV-2 SL6 RNA, the “affinity for SL6 (IDA)” value is “weak affinity”. Also, the “affinity for SL4 (IDA)” value in the data set on SARS-CoV-2 SL4 RNA is “weak affinity”. In addition, in the data set on SARS-CoV-2 [4], the “viral titer compared to DMSO (TCID50 assay)” value is “dose-dependent reduction in viral titer” and the “antiviral activity compared to parent scaffold DMA-01” value is “improved antiviral activity”. For the same molecule, the “cellular viability as measured by ATP content” value with VeroE6 cells was “without measurable effect on cellular viability”. Also, the IC50 with SARS-CoV-2 [5] was ~10 µM.
On to `CN(C)c1nc(N)c(C(=O)NC(=N)N)nc1-c1ccc(-c2ccccc2)cc1` [DMA-155], for which, in the data set with Vero E6 cells, the cell viability entry is recorded as “do not significantly reduce cell viability”. Also, the CC50 at 96 h in [2] was ~90 µM. In the data set on human coronavirus OC43, the “effect on virus titer (in words)” value was “reduce virus titer in a dose-dependent manner” and the reduced virus titer is ~1,000 fold. The “reduction of FLuc activity” value in [3] is recorded as ~90%. The “affinity for SL6 (IDA)” value with SARS-CoV-2 SL6 RNA was “strong binder with highest affinity for SL6”. In addition, the “antiviral activity compared to parent scaffold DMA-01” value in the data set on SARS-CoV-2 [4] was “improved antiviral activity”. Further, the concentration for half-maximal inhibition (IC50) with SARS-CoV-2 [5] was ~16 µM.
